± gives the expanded uncertainty stated by the source.
Assay: mn = molality of the nth substance listed, in mol/kg
Conditions: 298.15 K, 101.3 kPa, Liquid, Frequency=0.0002 MHz, Alternating current cell with electrodes

## C[C@H](CCC(=O)[O-])[C@H]1CC[C@H]2[C@@H]3[C@H](O)C[C@@H]4C[C@H](O)CC[C@]4(C)[C@H]3C[C@H](O)[C@]12C.[Na+] [sodium cholate] + O
m1 = 0.00042
  electrical conductivity: 0.0033 ± 0.0003 S/m
m1 = 0.00083
  electrical conductivity: 0.0062 ± 0.0003 S/m
m1 = 0.00124
  electrical conductivity: 0.009 ± 0.0006 S/m
m1 = 0.00164
  electrical conductivity: 0.0118 ± 0.0006 S/m
m1 = 0.00205
  electrical conductivity: 0.0144 ± 0.0006 S/m
m1 = 0.00245
  electrical conductivity: 0.0171 ± 0.0006 S/m
m1 = 0.00284
  electrical conductivity: 0.0197 ± 0.0007 S/m
m1 = 0.00324
  electrical conductivity: 0.0225 ± 0.0007 S/m
m1 = 0.00363
  electrical conductivity: 0.025 ± 0.0006 S/m
m1 = 0.00401
  electrical conductivity: 0.0275 ± 0.0006 S/m
m1 = 0.0044
  electrical conductivity: 0.0299 ± 0.0006 S/m
m1 = 0.00478
  electrical conductivity: 0.0322 ± 0.0006 S/m
m1 = 0.00516
  electrical conductivity: 0.0345 ± 0.0006 S/m
m1 = 0.00553
  electrical conductivity: 0.0366 ± 0.0007 S/m
m1 = 0.0059
  electrical conductivity: 0.0388 ± 0.0007 S/m
m1 = 0.00627
  electrical conductivity: 0.0409 ± 0.0007 S/m
m1 = 0.00664
  electrical conductivity: 0.043 ± 0.0007 S/m
m1 = 0.007
  electrical conductivity: 0.0451 ± 0.0007 S/m
m1 = 0.00736
  electrical conductivity: 0.0473 ± 0.0007 S/m
m1 = 0.00772
  electrical conductivity: 0.0493 ± 0.0007 S/m
m1 = 0.00807
  electrical conductivity: 0.0512 ± 0.0007 S/m
m1 = 0.00842
  electrical conductivity: 0.0532 ± 0.0008 S/m
m1 = 0.00877
  electrical conductivity: 0.0553 ± 0.0008 S/m
m1 = 0.00912
  electrical conductivity: 0.0573 ± 0.0008 S/m
m1 = 0.00946
  electrical conductivity: 0.0591 ± 0.0008 S/m
m1 = 0.00981
  electrical conductivity: 0.061 ± 0.0008 S/m
m1 = 0.01015
  electrical conductivity: 0.063 ± 0.0016 S/m
m1 = 0.01048
  electrical conductivity: 0.0649 ± 0.0015 S/m
m1 = 0.01082
  electrical conductivity: 0.0668 ± 0.0015 S/m
m1 = 0.01115
  electrical conductivity: 0.0687 ± 0.0016 S/m
m1 = 0.01148
  electrical conductivity: 0.0706 ± 0.0016 S/m
m1 = 0.0118
  electrical conductivity: 0.0724 ± 0.0016 S/m
m1 = 0.01213
  electrical conductivity: 0.0743 ± 0.0016 S/m
m1 = 0.01245
  electrical conductivity: 0.0762 ± 0.0016 S/m
m1 = 0.01277
  electrical conductivity: 0.078 ± 0.0016 S/m
m1 = 0.01309
  electrical conductivity: 0.0798 ± 0.0016 S/m
m1 = 0.0134
  electrical conductivity: 0.0816 ± 0.0016 S/m
m1 = 0.01371
  electrical conductivity: 0.0834 ± 0.0017 S/m
m1 = 0.01402
  electrical conductivity: 0.0853 ± 0.0017 S/m
m1 = 0.01433
  electrical conductivity: 0.0871 ± 0.0017 S/m
m1 = 0.01464
  electrical conductivity: 0.0889 ± 0.0017 S/m
m1 = 0.01494
  electrical conductivity: 0.0906 ± 0.0017 S/m
m1 = 0.01524
  electrical conductivity: 0.0924 ± 0.0017 S/m
m1 = 0.01554
  electrical conductivity: 0.0942 ± 0.0017 S/m
m1 = 0.01584
  electrical conductivity: 0.0959 ± 0.0017 S/m
m1 = 0.01614
  electrical conductivity: 0.0976 ± 0.0017 S/m
m1 = 0.01643
  electrical conductivity: 0.0993 ± 0.0018 S/m
m1 = 0.01672
  electrical conductivity: 0.101 ± 0.0018 S/m
m1 = 0.01701
  electrical conductivity: 0.103 ± 0.0018 S/m
m1 = 0.0173
  electrical conductivity: 0.104 ± 0.0018 S/m

## CCCCCCCCCCCCOS(=O)(=O)[O-].[Na+] [sodium dodecyl sulfate] + O
m1 = 0.001
  electrical conductivity: 0.0071 ± 0.0001 S/m
m1 = 0.00201
  electrical conductivity: 0.0137 ± 0.0003 S/m
m1 = 0.00301
  electrical conductivity: 0.0209 ± 0.0004 S/m
m1 = 0.00401
  electrical conductivity: 0.0275 ± 0.0004 S/m
m1 = 0.00501
  electrical conductivity: 0.034 ± 0.0004 S/m
m1 = 0.00602
  electrical conductivity: 0.041 ± 0.0004 S/m

From the NIST ThermoML archive (doi:10.1016/j.jct.2016.04.019)
